Results taken from US8901118B2, “Compounds and methods for kinase modulation, and indications therefor” (Plexxikon Inc., priority 2010, dated 2014).

What was measured:
BCR-FMS BaF3 cells = molecular target: T1, BCR-FMS BaF3 cells (Homo sapiens, UniProt P07333); assay: BaF3 BCR-FMS cell proliferation assay (ATPlite); type: cell-based; details: read-out: Inhibition of Cell Proliferation IC50, BCR/BaF3 Fms
T1 construct: fused on or other part: P11274 (Breakpoint cluster region protein)
T1 sequence (P07333 582-910): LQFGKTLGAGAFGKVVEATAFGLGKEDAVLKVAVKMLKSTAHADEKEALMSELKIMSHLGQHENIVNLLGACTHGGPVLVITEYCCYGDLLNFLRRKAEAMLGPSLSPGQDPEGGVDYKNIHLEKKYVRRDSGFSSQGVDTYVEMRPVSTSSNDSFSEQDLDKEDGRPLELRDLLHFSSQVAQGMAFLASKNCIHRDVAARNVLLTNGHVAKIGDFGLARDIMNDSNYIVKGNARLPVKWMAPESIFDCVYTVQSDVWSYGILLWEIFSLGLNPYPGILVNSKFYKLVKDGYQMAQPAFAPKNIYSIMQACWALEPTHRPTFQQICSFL
Method in brief: (§1)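 Cells are plated overnight: BaF3 at 10,000/well in G418 medium without WEHI/IL-3, MV-4-11 at 25,000/well in IMDM with 10% FBS. An 8-point 1:3 compound titration (10 μM top) is then added, and plates are incubated 3 days at 37 °C before ATPlite readout and IC50 determination.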

BCR-KIT BaF3 cells = molecular target: T2, BCR-KIT BaF3 cells (Homo sapiens, UniProt P10721); assay: BaF3 BCR-KIT cell proliferation assay (ATPlite); type: cell-based; details: read-out: Inhibition of Cell Proliferation IC50, BCR/BaF3 Kit
T2 construct: fused on or other part: P11274 (Breakpoint cluster region protein)
T2 sequence (P10721 589-937): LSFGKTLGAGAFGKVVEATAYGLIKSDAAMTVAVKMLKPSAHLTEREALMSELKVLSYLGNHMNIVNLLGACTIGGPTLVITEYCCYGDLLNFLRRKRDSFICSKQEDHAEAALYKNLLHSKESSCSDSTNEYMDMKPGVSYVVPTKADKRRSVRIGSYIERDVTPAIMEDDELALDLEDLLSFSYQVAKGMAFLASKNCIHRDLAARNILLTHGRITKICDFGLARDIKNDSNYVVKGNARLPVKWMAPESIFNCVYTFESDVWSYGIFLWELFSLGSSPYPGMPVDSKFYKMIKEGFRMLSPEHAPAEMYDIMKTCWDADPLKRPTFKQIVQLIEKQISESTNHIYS
Method in brief: as §1

BCR-NTRK3 BaF3 cells = molecular target: T3, BCR-NTRK3 BaF3 cells (Homo sapiens, UniProt Q16288); assay: BaF3 BCR-NTRK3 cell proliferation assay (ATPlite); type: cell-based; details: read-out: Inhibition of Cell Proliferation IC50, BCR/BaF3 TrkC
T3 construct: fused on or other part: P11274 (Breakpoint cluster region protein)
T3 sequence (Q16288 whole entry, the tested form may be a part): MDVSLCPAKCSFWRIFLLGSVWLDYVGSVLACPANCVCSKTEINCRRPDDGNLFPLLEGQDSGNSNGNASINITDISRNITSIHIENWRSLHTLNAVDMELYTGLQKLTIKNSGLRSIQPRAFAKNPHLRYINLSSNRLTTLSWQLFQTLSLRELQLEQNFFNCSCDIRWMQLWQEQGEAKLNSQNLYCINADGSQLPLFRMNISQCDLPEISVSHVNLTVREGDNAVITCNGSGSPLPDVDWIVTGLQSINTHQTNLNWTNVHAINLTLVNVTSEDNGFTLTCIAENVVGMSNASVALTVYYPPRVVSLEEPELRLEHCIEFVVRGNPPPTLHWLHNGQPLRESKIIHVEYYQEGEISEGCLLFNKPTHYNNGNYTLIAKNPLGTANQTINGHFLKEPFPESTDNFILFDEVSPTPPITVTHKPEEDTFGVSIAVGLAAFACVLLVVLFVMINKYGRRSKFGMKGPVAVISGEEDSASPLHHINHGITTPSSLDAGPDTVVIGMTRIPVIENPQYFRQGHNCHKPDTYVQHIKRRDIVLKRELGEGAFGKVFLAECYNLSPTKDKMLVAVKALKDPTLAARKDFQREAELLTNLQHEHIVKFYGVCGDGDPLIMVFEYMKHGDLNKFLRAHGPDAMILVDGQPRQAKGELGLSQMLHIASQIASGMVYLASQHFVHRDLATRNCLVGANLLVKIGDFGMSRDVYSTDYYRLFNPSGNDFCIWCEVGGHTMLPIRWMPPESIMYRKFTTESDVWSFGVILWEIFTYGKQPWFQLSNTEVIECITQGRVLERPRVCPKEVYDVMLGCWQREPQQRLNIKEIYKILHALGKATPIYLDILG
Method in brief: as §1

CYP2C19 = CYP2C19 (Homo sapiens, UniProt P33261); assay: CYP2C19 inhibition (fluorescent substrate CEC); type: in vitro ADME; details: read-out: Cyp IC50 2C19
Chain of CYP2C19 (P33261 whole entry): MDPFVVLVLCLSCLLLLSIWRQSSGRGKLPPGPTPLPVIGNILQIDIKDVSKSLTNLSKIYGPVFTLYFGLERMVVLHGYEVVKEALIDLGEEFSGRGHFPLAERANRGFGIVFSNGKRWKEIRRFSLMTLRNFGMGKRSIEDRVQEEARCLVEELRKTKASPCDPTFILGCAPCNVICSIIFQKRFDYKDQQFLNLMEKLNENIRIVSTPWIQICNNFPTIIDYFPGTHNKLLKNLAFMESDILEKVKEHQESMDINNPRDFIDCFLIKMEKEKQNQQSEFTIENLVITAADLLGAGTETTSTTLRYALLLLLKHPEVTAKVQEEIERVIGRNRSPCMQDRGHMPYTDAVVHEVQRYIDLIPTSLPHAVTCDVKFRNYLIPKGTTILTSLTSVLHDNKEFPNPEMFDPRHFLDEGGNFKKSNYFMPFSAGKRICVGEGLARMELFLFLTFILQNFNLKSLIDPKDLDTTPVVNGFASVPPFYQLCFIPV
Method in brief: (§2)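 10-pt 1:1 dilution series (from 100 mM DMSO stock) in NADPH regen cofactor mix, 5% MeCN; 10 min preincubation at 37 °C. Enzyme reaction 37 °C: 1A2 15 min, 2C9 45 min, 2C19/2D6 30 min. Fluorescence readout; IC50 fit.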

CYP2C9 = CYP2C9 (Homo sapiens, UniProt P11712); assay: CYP2C9 inhibition (fluorescent substrate MFC); type: in vitro ADME; details: read-out: Cyp IC50 2C9
Chain of CYP2C9 (P11712 whole entry): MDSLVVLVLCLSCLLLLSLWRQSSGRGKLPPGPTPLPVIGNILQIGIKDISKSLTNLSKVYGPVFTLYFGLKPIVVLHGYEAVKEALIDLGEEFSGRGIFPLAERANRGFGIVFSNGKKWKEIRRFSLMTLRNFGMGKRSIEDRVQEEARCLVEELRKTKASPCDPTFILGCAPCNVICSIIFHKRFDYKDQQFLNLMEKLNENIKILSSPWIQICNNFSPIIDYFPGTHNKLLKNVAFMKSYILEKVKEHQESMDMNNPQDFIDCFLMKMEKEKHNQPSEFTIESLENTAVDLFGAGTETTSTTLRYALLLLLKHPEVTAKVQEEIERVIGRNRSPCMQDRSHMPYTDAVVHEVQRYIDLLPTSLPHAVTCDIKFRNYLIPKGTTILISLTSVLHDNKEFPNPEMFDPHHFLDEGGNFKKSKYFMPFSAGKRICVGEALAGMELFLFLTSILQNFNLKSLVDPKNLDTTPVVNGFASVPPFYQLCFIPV
Method in brief: as §2

Row | Structure (SMILES) | IC50 (BCR-FMS BaF3 cells) [nM] | IC50 (BCR-KIT BaF3 cells) [nM] | IC50 (BCR-NTRK3 BaF3 cells) [nM] | IC50 (CYP2C19) [nM] | IC50 (CYP2C9) [nM]
1 | Clc1cnc2[nH]cc(Cc3cnc(NC4CCCCC4)nc3)c2c1 [Compound P-3001, [5-(5-chloro-1H-pyrrolo[2,3-b]pyridin-3-ylmethyl)-pyrimidin-2-yl]-cyclohexyl-amine] | < 100 | > 1000 | > 10000 | > 10000 | > 10000
2 | FC1(F)CCC(Nc2ncc(Cc3c[nH]c4ncc(Cl)cc34)cn2)CC1 [Compound P-3004] | < 100 | > 1000 | < 10000 | 5000 to 10000 | > 10000
3 | Clc1cnc2[nH]cc(Cc3cnc(NC4CCCCCC4)nc3)c2c1 [Compound P-3006, [5-(5-Chloro-1H-pyrrolo[2,3-b]pyridin-3-ylmethyl)-pyrimidin-2-yl]-cycloheptyl-amine] | < 1000 | > 1000 | > 10000 | > 10000 | > 10000
4 | Cc1cnc2[nH]cc(Cc3cnc(Nc4ccc(C(F)(F)F)nc4)nc3)c2c1 [Compound P-3018, [5-(5-Methyl-1H-pyrrolo[2,3-b]pyridin-3-ylmethyl)-pyrimidin-2-yl]-(6-trifluoromethyl-pyridin-3-yl)-amine] | < 100 | < 100 | < 100 | > 10000 | > 10000
5 | COc1ccc(Nc2ccc(Cc3c[nH]c4ncc(C)cc34)c(F)n2)cn1 [Compound P-3019, [6-fluoro-5-(5-methyl-1H-pyrrolo[2,3-b]pyridin-3-ylmethyl)-pyridin-2-yl]-(6-methoxy-pyridin-3-yl)-amine] | < 10 | < 1000 | < 100 | < 5000 | > 10000
6 | CCOc1ccc(Nc2ccc(Cc3c[nH]c4ncc(C)cc34)c(F)n2)cn1 [Compound P-3039, (6-ethoxy-pyridin-3-yl)-[6-fluoro-5-(5-methyl-1H-pyrrolo[2,3-b]pyridin-3-ylmethyl)-pyridin-2-yl]-amine] | < 10 | < 1000 | < 100 | > 10000 | > 10000
7 | COc1ccc(Nc2ccc(C(=O)c3c[nH]c4ncc(C)cc34)c(F)n2)cn1 [Compound P-3040, [2-Fluoro-6-(6-methoxy-pyridin-3-ylamino)-pyridin-3-yl]-(5-methyl-1H-pyrrolo[2,3-b]pyridin-3-yl)-methanone] | < 100 | > 1000 | < 10 | > 10000 | > 10000
8 | Cc1cnc2[nH]cc(Cc3ccc(Nc4ccc(C)nc4)nc3F)c2c1 [Compound P-3041, [6-Fluoro-5-(5-methyl-1H-pyrrolo[2,3-b]pyridin-3-ylmethyl)-pyridin-2-yl]-(6-methyl-pyridin-3-yl)-amine] | < 10 | < 1000 | < 100 | > 10000 | > 10000
9 | Cc1cnc2[nH]cc(C(=O)c3ccc(Nc4ccc(C)nc4)nc3F)c2c1 [Compound P-3043, [2-Fluoro-6-(6-methyl-pyridin-3-ylamino)-pyridin-3-yl]-(5-methyl-1H-pyrrolo[2,3-b]pyridin-3-yl)-methanone] | < 100 | < 1000 | < 100 | > 10000 | > 10000

The remaining lines, values ahead:

Row | IC50 (BCR-FMS BaF3 cells) [nM] | IC50 (BCR-KIT BaF3 cells) [nM] | IC50 (BCR-NTRK3 BaF3 cells) [nM] | IC50 (CYP2C19) [nM] | IC50 (CYP2C9) [nM] | Structure (SMILES)
10 | < 10 | < 100 | – | < 5000 | > 10000 | CCc1ccc(Nc2ccc(Cc3c[nH]c4ncc(C)cc34)c(F)n2)cn1 [Compound P-3048, (6-Ethyl-pyridin-3-yl)-[6-fluoro-5-(5-methyl-1H-pyrrolo[2,3-b]pyridin-3-ylmethyl)-pyridin-2-yl]-amine]
11 | < 10 | < 100 | – | > 10000 | > 10000 | CCc1ccc(Nc2ccc(C(=O)c3c[nH]c4ncc(C)cc34)c(F)n2)cn1 [Compound P-3049, [6-(6-Ethyl-pyridin-3-ylamino)-2-fluoro-pyridin-3-yl]-(5-methyl-1H-pyrrolo[2,3-b]pyridin-3-yl)-methanone]
12 | < 100 | < 1000 | – | > 10000 | > 10000 | Cc1cnc2[nH]cc(Cc3ccc(Nc4ccc(C5CC5)nc4)nc3F)c2c1 [Compound P-3050, (6-Cyclopropyl-pyridin-3-yl)-[6-fluoro-5-(5-methyl-1H-pyrrolo[2,3-b]pyridin-3-ylmethyl)-pyridin-2-yl]-amine]
13 | < 100 | < 1000 | – | > 10000 | > 10000 | Cc1cnc2[nH]cc(C(=O)c3ccc(Nc4ccc(C5CC5)nc4)nc3F)c2c1 [Compound P-3051, [6-(6-Cyclopropyl-pyridin-3-ylamino)-2-fluoro-pyridin-3-yl]-(5-methyl-1H-pyrrolo[2,3-b]pyridin-3-yl)-methanone]
14 | < 100 | – | < 10 | 5000 to 10000 | 5000 to 10000 | O=C(c1ccc(Nc2ccc(C3CC3)nc2)nc1F)c1c[nH]c2ncccc12 [Compound P-3052, [6-(6-Cyclopropyl-pyridin-3-ylamino)-2-fluoro-pyridin-3-yl]-(1H-pyrrolo[2,3-b]pyridin-3-yl)-methanone]
15 | < 10 | – | < 10 | > 10000 | > 10000 | Fc1nc(Nc2ccc(C3CC3)nc2)ccc1Cc1c[nH]c2ncccc12 [Compound P-3053, (6-Cyclopropyl-pyridin-3-yl)-[6-fluoro-5-(1H-pyrrolo[2,3-b]pyridin-3-ylmethyl)-pyridin-2-yl]-amine]
16 | < 100 | < 1000 | < 10 | – | – | CCOc1ccc(Nc2ccc(C(=O)c3c[nH]c4ncnc(C5CC5)c34)c(F)n2)cn1 [Compound P-4027, (4-Cyclopropyl-7H-pyrrolo[2,3-d]pyrimidin-5-yl)-[6-(6-ethoxy-pyridin-3-ylamino)-2-fluoro-pyridin-3-yl]-methanone]
17 | < 100 | < 1000 | < 100 | – | – | CCOc1ccc(Nc2ccc(C(=O)c3c[nH]c4ncnc(C)c34)c(F)n2)cn1 [Compound P-4032, [6-(6-Ethoxy-pyridin-3-ylamino)-2-fluoro-pyridin-3-yl]-(4-methyl-7H-pyrrolo[2,3-d]pyrimidin-5-yl)-methanone]
18 | < 100 | < 100 | – | > 10000 | 5000 to 10000 | CCn1cc(Nc2ccc(C(=O)c3c[nH]c4ncnc(C5CC5)c34)c(F)n2)cn1 [Compound P-4037, (4-Cyclopropyl-7H-pyrrolo[2,3-d]pyrimidin-5-yl)-[6-(1-ethyl-1H-pyrazol-4-ylamino)-2-fluoro-pyridin-3-yl]-methanone]
19 | < 100 | < 1000 | < 100 | – | – | Cc1cncc(Nc2ccc(Cc3c[nH]c4ncnc(C5CC5)c34)c(F)n2)c1 [Compound P-4038, [5-(4-Cyclopropyl-7H-pyrrolo[2,3-d]pyrimidin-5-ylmethyl)-6-fluoro-pyridin-2-yl]-(5-methyl-pyridin-3-yl)-amine]
20 | < 100 | < 1000 | < 100 | – | – | Cc1cncc(Nc2ccc(C(=O)c3c[nH]c4ncnc(C5CC5)c34)c(F)n2)c1 [Compound P-4039, (4-Cyclopropyl-7H-pyrrolo[2,3-d]pyrimidin-5-yl)-[2-fluoro-6-(5-methyl-pyridin-3-ylamino)-pyridin-3-yl]-methanone]
